For series [1], the system named is Leishmania amazonensis. Description: Antileishmanial activity against Leishmania amazonensis promastigotes assessed as reduction in parasite viability measured after 48 hrs by alamar blue analysis. The series is classed as functional, organism-based. A general note: Alamar Blue is a resazurin reagent that responds to reducing activity.
Series [2] deals with Leishmania amazonensis. Description: Antileishmanial activity against Leishmania amazonensis promastigotes assessed as inhibition of parasite growth at 10 uM relative to control. Type of series: functional. Also on record: scale not given: the % may be the effect or the level left.
The test system of series [3] is Leishmania amazonensis. Nature of the series: Antileishmanial activity against Leishmania amazonensis MHOM/BR/1989/166MJO promastigotes infected in mouse macrophage assessed as parasite growth inhibition measured after 72 hrs by MTT assay. The series is classed as functional, organism-based.
Another series has as its system J774.A1. Nature of the series: Cytotoxicity against mouse J774.A1 cells assessed as reduction in cell viability incubated for 24 hrs by MTT assay. Type of series: functional.
In series [4] the test system is Leishmania amazonensis. Description: Antileishmanial activity against Leishmania amazonensis MHOM/BR/1989/166MJO promastigotes assessed as reduction in […] growth. Type of series: functional, organism-based.
Series [5] concerns Leishmania amazonensis. Description: Antileishmanial activity against Leishmania amazonensis MHOM/BR/71973/M2269 promastigotes assessed as reduction in parasite growth incubated for 24 hrs by PI staining based flow cytometry analysis. The series is classed as functional, organism-based. As to conditions: MHOM/BR/71973/M2269, 24 h. (A flow cytometer gives signals particle by particle.)

The subject of series [6] is Leishmania infantum. Nature of the series: Antileishmanial activity against Leishmania infantum MCAN/ES/89/IPZ229/1/89 promastigote measured after 72 hrs by MTT assay. The series is classed as functional, organism-based. The settings on record: MCAN/ES/89/IPZ229/1/89, 72 h. On the technique in general: Tetrazolium dyes change colour on reduction, which living cells bring about.

The subject of series [7] is Leishmania infantum. Description: Antileishmanial activity against Leishmania infantum MHOM/BR/1972/BH46 promastigotes assessed as reduction in parasite growth incubated for 24 hrs by PI staining based flow cytometry analysis. Type of series: functional, organism-based. The settings on record: MHOM/BR/1972/BH46, 24 h.
For series [8], the system named is Leishmania amazonensis. Description: Antileishmanial activity against Leishmania amazonensis promastigotes assessed as inhibition of parasite growth measured after 72 hrs by alamar blue assay. The series is classed as functional, organism-based.
In series [9] the test system is Leishmania amazonensis. Nature of the series: Antileishmanial activity against Leishmania amazonensis amastigotes assessed as reduction in parasite growth measured after 24 hrs by MTT assay. Type of series: functional, organism-based.
For series [10], the system named is Leishmania donovani. Description: Antileishmanial activity against Leishmania donovani intracellular amastigotes assessed as parasite growth inhibition. The series is classed as functional, organism-based.
Series [11] in a line: Cytotoxicity against mouse RAW264.7 cells assessed as reduction in cell viability measured after 24 hrs by CCK8 assay. Type of series: toxicity, cell-based.
Series [12] relates to Leishmania donovani. Nature of the series: Antileishmanial activity against Leishmania donovani promastigotes at 50 uM. Type of series: functional.
The test system of series [13] is Leishmania donovani. Nature of the series: Immunosuppressive activity in Leishmania donovani assessed as inhibition of PGE2 production. Type of series: functional, organism-based.
For series [14], the system named is Leishmania donovani. Nature of the series: Antileishmanial activity against Leishmania donovani promastigotes at 25 uM. The series is classed as functional.
The subject of series [15] is Leishmania major. Nature of the series: Antileishmanial activity against Leishmania major promastigote assessed as inhibition of parasite growth. The series is classed as functional, organism-based.
Series [16] concerns Leishmania infantum. Description: Antileishmanial activity against Leishmania infantum MCAN/ES/89/IPZ229/1/89 axenic amastigotes assessed as reduction in parasite viability treated for 24 hrs by PI staining based flow cytometry. The series is classed as functional, organism-based. As to conditions: MCAN/ES/89/IPZ229/1/89, 24 h.
Series [17] has as its system Leishmania donovani. Description: Antileishmanial activity against Leishmania donovani promastigotes assessed as reduction in parasite growth incubated for 72 hrs by MTT assay. The series is classed as functional, organism-based.
Series [18] has as its system Leishmania donovani. Description: Antileishmanial activity against Leishmania donovani amastigotes. The series is classed as functional, organism-based.
Series [19] has as its system Leishmania donovani. Description: Antileishmanial activity against Leishmania donovani promastigotes. The series is classed as functional, organism-based.
A short description of series [20]: Inhibition of recombinant Leishmania mexicana Trypanothione reductase.
The subject of series [21] is Leishmania major. Description: Antileishmanial activity against Leishmania major promastigotes incubated for 24 hrs measured by alamar blue staining based fluorescence analysis. Type of series: functional, organism-based.
Series [22] in a line: Antileishmanial activity against Leishmania donovani MHOM/IN/95/9515 promastigotes assessed as inhibition of parasite viability incubated for 72 hrs by resazurin/alamar blue fluorometric assay. Type of series: functional.
Series [23] relates to Leishmania major. Description: Antileishmanial activity against Leishmania major IR-173 promastigotes assessed as inhibition of parasite viability incubated for 72 hrs by resazurin/alamar blue fluorometric assay. The series is classed as functional.
A further series concerns the target Arginase (Leishmania amazonensis, UniProt O96394). Description: Inhibition of Leishmania amazonensis Arginase expressed in Escherichia coli BL21 (DE3).
The test system of series [24] is Leishmania infantum. Description: Antileishmanial activity against Leishmania infantum MHOM/MA/67/ITMAP263 promastigotes expressing red-shifted luciferase gene infected in mouse J774 cells incubated for 24 hrs by microplate luminometer analysis. The series is classed as functional, organism-based. The settings on record: MHOM/MA/67/ITMAP263, J774, 24 h.
In series [25] the test system is Leishmania infantum. Description: Antileishmanial activity against Leishmania infantum MON-1 promastigotes assessed as reduction in parasite viability measured after 48 hrs by MTT assay. The series is classed as functional, organism-based. As to conditions: MON-1, 48 h.

In brackets after ≈: the same amount, converted by molar mass.

As for `CC[C@H]1C[C@@H]2CN3CCc4c([nH]c5ccccc45)[C@](C(=O)OC)(C2)[C@H]13` [CORONARIDINE], the IC50 (in general, the concentration needed to halve the response being measured) in the series with Leishmania amazonensis [1] was 12.5 µg/mL (≈ 36.9 µM). For the same molecule, the Activity with Leishmania amazonensis [2] stood at 97%.
`COc1cc(C(=O)/C=C/c2ccc([N+](=O)[O-])cc2)c(C(C)=O)c2c(OC)cccc12`: the half-maximal inhibitory concentration (IC50) amounted to 18.5 µM in the series with Leishmania amazonensis [3] and 3.3 µM with Leishmania amazonensis [4]. The CC50 (usually the concentration giving 50% cytotoxicity) with J774.A1 stood at 373 µM.
Consider `CCCc1cc(OC)c2oc(=O)c(C(=O)c3ccc([N+](=O)[O-])cc3)cc2c1`, for which the IC50 in the series with Leishmania amazonensis [5] came out at 26.7 µM; in the series on Leishmania infantum [6], 6.8 µM; in the series with Leishmania infantum [7], 3.53 µM; with Leishmania amazonensis [8] it was 18 µM; in the series on Leishmania amazonensis [9] it was 18 µM.
As to `CCCCCCCCNCc1ccc2c(c1)C(=O)CC(C)(C)O2`, the IC50 in the series with Leishmania donovani [10] is 24.6 µM.
In the case of `O=C(/C=C/c1ccc(F)cc1)c1ccccc1Cl`, in series [11], the CC50 at 24 h came to 479 µM.
As to `COc1ccc2c(c1)O/C(=C/c1cc(O)cc(O)c1)C2=O`, the Activity is 108% in the series on Leishmania donovani [12] and 105% with Leishmania donovani [14]. The IC50 in the series on Leishmania donovani [13] was 5.9 µM.
`COc1c2ccoc2nc2c(OC)cccc12` [GAMMA-FAGARINE]: the IC50 in the series with Leishmania major [15] was over 74.2 µM.
`Cn1c(=O)c2c(c3ccccc31)OC(C)(C)[C@H]1CC[C@@](C)(O)[C@H](Cl)[C@H]21`: the IC50 with Leishmania infantum [16] is over 6.25 µM.
Take `CCOC(=O)C1=CNC(=S)NC1c1ccc(C)cc1` (configuration not stated): in the series with Leishmania donovani [17], the IC50 was 28.3 µg/mL (≈ 102 µM).
Take `O=C1/C(=C/c2ccc(O)c(O)c2)Oc2cc(O)ccc21` [SULFURETIN]: the EC50 (commonly the concentration needed to bring the measured effect to its halfway point) with Leishmania donovani [18] came out at 0.33 µM; in the series on Leishmania donovani [19] it was 4.58 µM.
Turning to `C[C@H]1[C@H](C)CC[C@]2(C(=O)O)CC[C@]3(C)C(=CC[C@@H]4[C@@]5(C)CC[C@H](O)C(C)(C)[C@@H]5CC[C@]43C)[C@H]12` [URSOLIC ACID], the IC50 in series [20] stood at 7.03 µM.
Molecule `CCOC(=O)C1=C(C)NC(C)=C(C(=O)OCC)C1c1cccc(Cl)c1` came in with an EC50 in the series with Leishmania major [21] of 15.5 µM.
For the molecule `O=C(Cn1cnc2cc(Cl)ccc2c1=O)n1cnc2cc(Cl)ccc2c1=O`, the Activity in [22] stood at 29%.
Turning to `O=C(Cn1cnc2ccccc2c1=O)N1CCC2(CC1)OCCO2`, the Activity in the series with Leishmania major [23] is 35%.
In the case of `O=C(CCc1ccc(O)c(O)c1)O[C@H](Cc1ccc(O)cc1)C(=O)O`, it took 5.5 µM to reach half-maximal inhibition against Arginase (IC50).
`COc1cc(OC)c(C(=O)/C=C/c2cccc(C)c2)c([N+](=O)[O-])c1`: the EC50 with Leishmania infantum [24] came to 0.78 µM. The IC50 in the series with Leishmania infantum [25] was 74.1 µM.
